According to paper PMC5516258, “A Nonredundant Phosphopantetheinyl Transferase, PptA, Is a Novel Antifungal Target That Directs Secondary Metabolite, Siderophore, and Lysine Biosynthesis in Aspergillus fumigatus and Is Critical for Pathogenicity” (mBio, 2017):
Like-named read-outs stand apart in the source and are kept apart here.

Experiments:
[1] = molecular target: T1, PptA (AFPptA; AFPptA-GST) (Aspergillus fumigatus, UniProt B0XWE4); experiment: fluorescence polarization, transfer of BODIPY-TMR-labelled phosphopantetheine from CoA to AarA; assay type: biochemical
T1 construct: gene AFUB_024520

[2] = molecular target: T2, HS-PPTase (AASDHPPT) (Homo sapiens, UniProt Q9NRN7); experiment: fluorescence polarization, transfer of BODIPY-TMR-labelled phosphopantetheine from CoA to human ACP domain; assay type: biochemical; details: read-out: no inhibition at concentrations up to 200 μM
T2 construct: cDNA cloned into pET43.1, E. coli BL21(DE3), Ni-NTA purified
T2 sequence (Q9NRN7 1-309): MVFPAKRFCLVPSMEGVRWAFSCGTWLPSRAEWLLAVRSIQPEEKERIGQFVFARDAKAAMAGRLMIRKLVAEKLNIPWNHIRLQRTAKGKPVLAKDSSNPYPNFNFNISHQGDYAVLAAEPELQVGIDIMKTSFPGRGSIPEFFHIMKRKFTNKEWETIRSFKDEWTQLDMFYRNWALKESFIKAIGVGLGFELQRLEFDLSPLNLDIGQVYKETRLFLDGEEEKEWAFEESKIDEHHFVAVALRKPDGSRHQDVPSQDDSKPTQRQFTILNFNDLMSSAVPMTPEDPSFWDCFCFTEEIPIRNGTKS

T1 sequence (B0XWE4 entry or part of it): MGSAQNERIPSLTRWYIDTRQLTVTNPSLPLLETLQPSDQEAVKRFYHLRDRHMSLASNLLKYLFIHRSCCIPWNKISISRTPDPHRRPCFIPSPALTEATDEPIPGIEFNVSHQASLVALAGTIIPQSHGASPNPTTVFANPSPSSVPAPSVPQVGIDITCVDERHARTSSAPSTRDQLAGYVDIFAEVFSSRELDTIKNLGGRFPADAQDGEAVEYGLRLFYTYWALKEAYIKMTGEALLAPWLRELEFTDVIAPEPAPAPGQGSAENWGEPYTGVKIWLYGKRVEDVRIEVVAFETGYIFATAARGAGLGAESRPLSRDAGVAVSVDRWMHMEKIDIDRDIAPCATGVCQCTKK

Row | SMILES | IC50 [1] [µM] | IC50 [2] [µM] | IC50 ([1]; acceptor A. fumigatus AarA 750 ng, BODIPY-TMR-CoA, 62.5 mM bis-Tris pH 6.5, 12.5 mM Mg chloride, room temperature, 100 ng PptA, triplicate, doubling dilutions from 100 µM) [µM]
1 | O=Nc1ccc2oc(=O)ccc2c1 [6-nitroso-1,2-benzopyrone] | 35.2 | > 200 | –
2 | Clc1ccc(C(c2ccc(Cl)cc2)n2cc[n+](CC(OCc3ccc(Cl)cc3Cl)c3ccc(Cl)cc3Cl)c2)cc1 (stereo not shown) [calmidazolium chloride] | – | – | 19.2
3 | N=C1Sc2ccccc2C2=NCCCN12 [PD 404,182] | 3.9 | – | –
